Experimental data from patent publication US20240101667A1, “METHODS FOR IDENTIFYING LILRB-BLOCKING ANTIBODIES” (THE BOARD OF REGENTS OF THE UNIVERSITY OF TEXAS SYSTEM, priority 2020, published 2024).
Where a SMILES comes first, the peptide text is derived from it. The star is where a group is joined. Cbz = O=C(OCc1ccccc1)*; CH2F = FC*

Tests used:
Format in all cases: cell-based, human
NF-κB signaling [1] = test: NF-κB reporter assay in 293T cells
Experimental: (§1) NF-κB reporter assay and LILRB3 chimeric receptor reporter assay. THP-1-Lucia™ NF-κB cells were purchased from InvivoGen. Human anti-LILRB3 antibody with the N297A mutation was coated onto the plate to activate LILRB3 signaling, and plates coated with hIgG (N297A) were used as the control. The activation of NF-κB signaling was evaluated by monitoring luciferase signal. Infected THP-1 reporter cells were cultured for an additional month before stimulation with anti-LILRB3. For the NF-κB reporter assay conducted in 293T cells, an NF-κB-driven firefly luciferase reporter plasmid co-transfected with a plasmid encoding CMV-driven Renilla luciferase along with plasmids expressing LILRB3, TRAF2, or cFLIP were transfected into cells. The luciferase activity was detected using the Dual-Luciferase® Reporter (DLR™) Assay System (Promega). LILRB3 chimeric receptor reporter cells were constructed as the inventors described (Deng et al., 2014; 2018; Kang et al., 2015), with LILRB3-ECD fused with the transmembrane and intracellular domains of paired immunoglobulin-like receptor β, which signals through the adaptor DAP-12 to activate the NFAT promoter.

NF-κB signaling [2] = test: NF-κB reporter assay in THP-1-Lucia NF-κB cells; settings: for NF-κB reporter activity activated by LILRB3: THP-1-Lucia cells activated with anti-LILRB3 antibody
Experimental: as §1

[3] = test system: THP-1, Molm13, MV4 AML cells; test: AML cell death / growth in plates coated with anti-LILRB3 (PI staining); settings: QNZ 10 μM
Experimental: Cell culture. THP-1, MV4-11, Molm13, U937, C1498 and 293T cells were purchased from ATCC. AML cell lines were cultured in RPMI-1640 with 10% FBS. Human anti-LILRB3 with the N297A mutation was coated onto the plate to activate LILRB3 signaling, and plates coated with human IgG (N297A) were used as controls. Cells infected with virus were cultured for at least an additional 3 weeks before analysis of LILRB3 signaling. Dead cells were identified using PI staining. Primary human T cells were isolated by autoMACS from donor PBMCs, stimulated with anti-CD3 and anti-CD28, and cultured in RPMI-1640 in the presence of IL-2. For the cytotoxic T lymphocyte assay, human AML cells were stained with CFSE and mixed at different ratios with activated T cells. After 10 hours, the percentage of PI-positive CFSE-stained AML cells was determined by FACS.

Structure (SMILES) | ability of LILRB3 to stimulate NF-κB through TRAF2 (NF-κB signaling [1]; 293T cells co-transfected with TRAF2 or LILRB3) | LILRB3-induced NF-κB activity in 293T cells (NF-κB signaling [1]; tet-on cFLIP, 0.2 ug/ml of dox) | NF-κB reporter activity activated by LILRB3 (NF-κB signaling [2]) | LILRB3-induced NF-κB at low concentration of LPS (NF-κB signaling [2]; THP-1 cells) | effect of LILRB3 on survival of THP-1 cells [3]
COC(=O)C[C@H](NC(=O)[C@H](C)NC(=O)[C@@H](NC(=O)OCc1ccccc1)C(C)C)C(=O)CF [z-VAD-FMK] (Cbz-Val-Ala-Asp(OMe)-CH2F) | blocked the ability of LILRB3 to stimulate NF-κB through TRAF2 | blocked LILRB3-induced NF-κB activity | inhibited the NF-κB reporter activity | blocked LILRB3-induced NF-κB | –
Nc1ccc2ncnc(NCCc3ccc(Oc4ccccc4)cc3)c2c1 [QNZ] | – | – | – | – | partially abolished the effect of LILRB3 on survival of THP-1 cells
CC[C@H](C)[C@H](NC(=O)OCc1ccccc1)C(=O)N[C@@H](CCC(=O)OC)C(=O)N[C@H](C(=O)N[C@@H](CC(=O)OC)C(=O)CF)[C@@H](C)O [z-IETD-FMK] (Cbz-IE(OMe)TD(OMe)-CH2F) | – | – | inhibited the NF-κB reporter activity | – | –
